Assay results published in patent US20150057316A1, “NOVEL SULFONATE-BASED TRIMEBUTINE SALTS” (GICARE PHARMA INC., priority 2012, published 2015).

Columns and labels:
male Balb/C mice = experiment: preliminary toxicological evaluation following i.p. administration in mice; assay type: in vivo; conditions: 50 mg/kg i.p.
Procedure: A preliminary toxicological evaluation of the compound was done in 6-8 week old male Balb/C mice. […] Following administration of the test article, animals were observed hr for the first 8 hr post-dosing for clinical signs and twice daily thereafter until termination on Day 7. Body weights were determined on Days 1, 2, 3 and 7. Three mice were sacrificed by exsanguination at 24 hr post dosing or on Day 7, and a gross necropsy was performed in all animals. Particular attention was paid to the abdominal, thoracic and cranial cavities for reporting of any unusual observations.

Beagle dogs = experiment: MTD determination following p.o. administration in dogs; assay type: in vivo
Procedure: For MTD determination, the compound was administered once on each occasion by oral gavage, in an incremental fashion to animals, until the maximum tolerated dose is considered to have been reached. This dose was established at 2,000 mg/kg, i.e., the highest dose administered in animals. […] The animal was back to normal activity levels approximately 1 hr post dosing.

CCC(COC(=O)c1cc(OC)c(OC)c(OC)c1)(c1ccccc1)N(C)C.NC(=S)c1cccc(S(=O)(=O)O)c1 (stereo not drawn) [Example 20]
tolerability (male Balb/C mice): well-tolerated | macroscopic finding at gross necropsy (male Balb/C mice; 24 hr or Day 7): no significant macroscopic finding | clinical signs (male Balb/C mice; 7 days): no clinical signs were noted | mortality (male Balb/C mice; 7 days): no mortality | body weights (male Balb/C mice; Days 1, 2, 3 and 7): remained stable | clinical observations, male dog (Beagle dogs; 2,000 mg/kg p.o.): limited to vomiting a few min following dosing administration | clinical signs, female dog (Beagle dogs; 2,000 mg/kg p.o.): Decreased activity level, vomiting, bowel movement, yellowish fluid fecal consistency, vocalization about 15-20 min post-dose, decreased respiration, weak behavior, eyes partially closed, and mild transient tremors | blood pressure, male dog (Beagle dogs; 2,000 mg/kg p.o., 30 min post dose compared to pre-dose): dropped slightly | blood pressure, female dog (Beagle dogs; 2,000 mg/kg p.o., approximately 30 min post dose): almost no change in blood pressure | time back to normal activity levels, female dog (Beagle dogs; 2,000 mg/kg p.o., post dosing): approximately 1 hr | doses orally administered well tolerated (Beagle dogs; Beagle dogs, oral gavage): up to 2,000 mg/kg | maximum tolerated dose (MTD) (Beagle dogs; Beagle dogs, oral gavage, highest dose administered): 2,000 mg/kg
